Measured values as given in patent US10265278B2, “Pharmaceutical compositions and methods utilizing a D-amino acid” (priority 2008, dated 2019).
Where two headings read alike, the source gives them in different places.

Legend:
rat kidney [1] = conditions: cited from earlier work; for Protective effect against D-serine nephrotoxicity: compound injected prior to D-serine (Kaltenbach et al 1982); for Effect on nephrotoxic effects of orally administered DL-serine: DL-serine 100 mg oral, test compound subcutaneous or intramuscular, rats (Wachstein)
[2] = oral NAC vs. hydration alone; cited from earlier work
rat kidney [3] = conditions: rats (Dickey et al 2007), cited from earlier work
rat kidney [4] = conditions: cited from earlier work
Sprague Dawley rats [5] = experiment: Creatanine levels in rats during oral D-serine treatment with or without glutathione precursors; assay type: in vivo
Description: (§1) Rats were divided into 5 separate groups of four male and four female animals each.
(§2) In addition, a control group received only standard diet. […] Effects of various doses were investigated in a sequential manner starting with 50 mg/kg. Dose level was doubled every three days up to four doses (50 mg, 100 mg, 200 mg & 400 mg).
(§3) Nephrotoxicity was assessed in two ways: first, by creatanine levels and second by histophathology at necropsy.

Sprague Dawley rats [6] = experiment: Histopathological examination of kidney at necropsy (tubular nephrosis grade); assay type: in vivo; conditions: histopathology at necropsy; oral gavage up to 400 mg/kg
Description: as §1, §2, §3

C[C@H](O)[C@@H](N)C(=O)O [D-threonine]
Protective effect against D-serine nephrotoxicity (rat kidney [1]): significant protective effects

N[C@@H](Cc1c[nH]cn1)C(=O)O [L-histidine]
Effect on nephrotoxic effects of orally administered DL-serine (rat kidney [1]): relatively ineffective

CC(=O)[O-].[Na+] [sodium acetate]
Effect on nephrotoxic effects of orally administered DL-serine (rat kidney [1]): relatively ineffective

O=C[C@H](O)[C@@H](O)[C@H](O)[C@H](O)CO [D-glucose]
Effect on nephrotoxic effects of orally administered DL-serine (rat kidney [1]): relatively ineffective

CC(C)C(N)C(=O)O (racemic) [DL-valine]
Effect on nephrotoxic effects of orally administered DL-serine (rat kidney [1]): relatively ineffective

O=C([O-])CS.[Na+] [sodium thioglycollate]
Effect on nephrotoxic effects of orally administered DL-serine (rat kidney [1]): relatively ineffective

C[C@@H](O)[C@H](N)C(=O)O (racemic) [DL-threonine]
Effect on nephrotoxic effects of orally administered DL-serine (rat kidney [1]): partial or full prevention of toxicity

CC(O)C(=O)[O-].[Na+] (stereo not shown) [sodium lactate]
Effect on nephrotoxic effects of orally administered DL-serine (rat kidney [1]): partial or full prevention of toxicity

N[C@@H](CCC(=O)N[C@@H](CS)C(=O)NCC(=O)O)C(=O)O [glutathione]
Effect on nephrotoxic effects of orally administered DL-serine (rat kidney [1]): blocked | Prevention of D-serine toxicity (rat kidney [1]; intrarenal injection, equimolar with D-serine (Krug et al 2007)): toxicity can be prevented

CC(N)C(=O)O (racemic) [DL-alpha-alanine]
Effect on nephrotoxic effects of orally administered DL-serine (rat kidney [1]): relatively ineffective

OCC(S)CS (stereo not shown) [2,3 dithiopropanol]
Effect on nephrotoxic effects of orally administered DL-serine (rat kidney [1]): relatively ineffective

CC(C)(N)C(=O)O [alpha-aminoisobutryic acid]
Protective effect against D-serine nephrotoxicity (rat kidney [1]): significant protective effects

CC(N)(CO)C(=O)O (racemic) [DL-alpha-methylserine]
Protective effect against D-serine nephrotoxicity (rat kidney [1]): significant protective effects

N[C@H](CCO)C(=O)O [D-homoserine]
Protective effect against D-serine nephrotoxicity (rat kidney [1]): significant protective effects

C[C@@H](N)C(=O)O [D-alanine]
Protective effect against D-serine nephrotoxicity (rat kidney [1]): significant protective effects

NCC(=O)O [glycine]
Effect on nephrotoxic effects of orally administered DL-serine (rat kidney [1]): partial or full prevention of toxicity

CC(=O)N[C@@H](CS)C(=O)O [NAC, N-acetylcysteine]
Blockade of nephrotoxicity due to intravenous contrast [2]: not found benefit over hydration alone | Effect against cisplatin-induced experimental nephrotoxicity (rat kidney [3]; intravenous NAC): effective | Effect against cisplatin-induced experimental nephrotoxicity (rat kidney [3]; oral NAC): not found beneficial effects

CC(C)C(O)C(N)C(=O)O (racemic) [beta-hydroxy-DL-leucine]
Protective effect against D-serine nephrotoxicity (rat kidney [1]): significant protective effects

NC(CO)C(=O)O (racemic) [DL-serine]
Renal injury induced (rat kidney [4]; 100 mg DL-serine, rats, stock diet or diet deficient in B vitamins): acute renal necrosis

N=C(N)NCCC[C@H](N)C(=O)O [L-arginine]
Effect on nephrotoxic effects of orally administered DL-serine (rat kidney [1]): relatively ineffective

O=C([O-])c1ccccc1.[Na+] [sodium benzoate]
Prevention of D-serine toxicity (rat kidney [1]; intraperitoneal, large doses (Williams and Lock 2005)): toxicity can be prevented

CCCC(=O)O [butyric acid]
Effect on nephrotoxic effects of orally administered DL-serine (rat kidney [1]): relatively ineffective

[Cl-].[Na+] [sodium chloride]
Effect on nephrotoxic effects of orally administered DL-serine (rat kidney [1]): relatively ineffective

CSCCC(N)C(=O)O (racemic) [DL-methionine]
Effect on nephrotoxic effects of orally administered DL-serine (rat kidney [1]): blocked

N[C@H](CO)C(=O)O [Group A, D-serine]
Nephrotoxicity in rats lacking DAAO (rat kidney [4]; rats lacking DAAO (Maekawa et al 2005)): not nephrotoxic | Smallest dose consistently producing renal lesions (rat kidney [4]; rats): 5 mg per 100 g | Increase in creatanine levels during treatment (Sprague Dawley rats [5]; post vs. pre, in words): significant increase | Creatanine level, Change mean (Sprague Dawley rats [5]; post- minus pre-treatment): 0.12 | Creatanine level, Post-treatment mean (Sprague Dawley rats [5]; post-treatment, oral gavage, doses escalated 50, 100, 200, 400 mg/kg): 0.77 | Creatanine level, Pre-treatment Mean (Sprague Dawley rats [5]; pre-treatment (baseline), rats, oral gavage): 0.65 | Nephrosis level (mean severity grade of tubular nephrosis) (Sprague Dawley rats [6]): 1.91
